Test results from patent EP3843702B1, “IMMEDIATE RELEASE FIXED-DOSE COMBINATION OF MEMANTINE AND DONEPEZIL” (Tecnimede, Sociedade Técnico-Medicinal, SA, priority 2019, dated 2020).

Conditions: in vivo

**Q.** Which “AUC 0→72 Point Estimate [%]” value does the source give for `CC12CC3CC(C)(C1)CC(N)(C3)C2` [Memantine 20mg, 3,5-dimethyladamantan-1-amine] here?
**A.** 103.89%

**Q.** And the “Cmax Point Estimate [%]” value?
**A.** 101.40%
